Reference: ChEMBL document CHEMBL1134826, “Pyrrolidine inhibitors of human cytosolic phospholipase A2. Part 2: synthesis of potent and crystallized 4-triphenylmethylthio derivative 'pyrrophenone'” (Bioorg Med Chem Lett, 2001)

Experiments:
Homo sapiens [1] = species: Homo sapiens; assay: Concentration required to inhibit production of TXB2 from whole blood stimulated with A-23187; type: functional, organism-based
Homo sapiens [2] = species: Homo sapiens; assay: Concentration required to inhibit production of PGE-2 from whole blood stimulated with A-23187; type: functional, organism-based
Homo sapiens [3] = species: Homo sapiens; assay: Concentration required to inhibit production of LDH from whole blood stimulated with A-23187; type: functional, organism-based
Homo sapiens [4] = species: Homo sapiens; assay: Concentration required to inhibit production of LTB4 from whole blood stimulated with A-23187; type: functional, organism-based
THP-1 [5] = assay: Concentration required to inhibit production of PGE-2 from THP-1 cells stimulated with A-23187; type: functional, cell-based; settings: Homo sapiens
Homo sapiens [6] = species: Homo sapiens; assay: Concentration required to inhibit production of arachidonic acid from whole blood stimulated with A-23187; type: functional, organism-based
THP-1 [7] = assay: Concentration required to inhibit production of LTC4 from THP-1 cells stimulated with A-23187; type: functional, cell-based; settings: Homo sapiens
THP-1 [8] = assay: Concentration required to inhibit production of arachidonic acid from THP-1 cells stimulated with A-23187; type: functional, cell-based; settings: Homo sapiens

## CCCCC/C=C\C/C=C\C/C=C\C/C=C\CCCC(=O)O [ARACHIDONIC ACID]
Homo sapiens [1]
  IC50: > 10 µM
Homo sapiens [2]
  IC50: > 10 µM
Homo sapiens [3]
  IC50: > 10 µM
Homo sapiens [4]
  IC50: 0.94 µM
THP-1 [5]
  IC50: 0.18 µM
Homo sapiens [6]
  IC50: > 10 µM
THP-1 [7]
  IC50: 0.0047 µM
THP-1 [8]
  IC50: 40 µM

## CCCCC/C=C\C/C=C\C/C=C\C/C=C\CCCC(=O)C(F)(F)F [ARACHIDONYL TRIFLUOROMETHYLKETONE]
Homo sapiens [1]
  IC50: > 10 µM
Homo sapiens [2]
  IC50: > 10 µM
Homo sapiens [3]
  IC50: > 10 µM
Homo sapiens [4]
  IC50: > 10 µM
Homo sapiens [6]
  IC50: > 10 µM
THP-1 [7]
  IC50: 41 µM
THP-1 [8]
  IC50: 86 µM

## COc1ccc2c(c1)c(CC(=O)O)c(C)n2C(=O)c1ccc(Cl)cc1 [INDOMETHACIN]
Homo sapiens [1]
  IC50: 0.36 µM
Homo sapiens [2]
  IC50: 0.26 µM
Homo sapiens [3]
  IC50: > 10 µM
Homo sapiens [4]
  IC50: > 10 µM
Homo sapiens [6]
  IC50: > 10 µM
THP-1 [7]
  IC50: > 10 µM
THP-1 [8]
  IC50: > 10 µM
